Data: US8921404B2, “Azole derivatives in the form of lipase and phospholipase inhibitors” (Sanofi, priority 2005, dated 2014)

The compounds below were run against hormone sensitive lipase, HSL (Rattus norvegicus (Rat), UniProt P15304) (assay: HSL inhibition assay). Conditions: partially purified HSL from rat fat cells; [3H]trioleoylglycerol substrate.
Format: biochemical
Method: 1.1. Preparation of the Partially Purified HSL:
Isolated rat fat cells are obtained from epididymal adipose tissue from untreated male rats (Wistar, 220-250 g) by collagenase treatment in accordance with published methods (e.g. S, Nilsson et al., Anal. Biochem. 158, 1986, 399-407; G. Fredrikson et al., J. Biol. Chem. 256, 1981, 6311-6320; H. Tornquist et al., J. Biol. Chem. 251, 1976, 813-819). The fat cells from 10 rats are washed three times by flotation with 50 ml of homogenization buffer ([…] Tris/HCl, pH 7.4, 0.25 M sucrose, 1 mM ETDA, 1 mM DTT, 10 μg/ml leupeptin, 10 μg/ml antipain, 20 μg/ml pepstatin) each time and finally taken up in 10 ml of homogenization buffer. The fat cells are homogenized in a Teflon-in-glass homogenizer (Braun-Melsungen) by 10 strokes at 1500 rpm and 15° C. The homogenate is centrifuged (Sorvall SM24 tubes, 5000 rpm, 10 min, 4° C.). The subnatant between the layer of fat at the top and the pellet is removed and the centrifugation is repeated. The subnatant resulting therefrom is centrifuged again (Sorvall SM24 tubes, 20 000 rpm, 45 min, 4° C.). The subnatant is removed, and 1 g of heparin-Sepharose (Pharmacia-Biotech, CL-6B, washed 5× with 25 mM Tris/HCl, pH 7.4, 150 mM NaCl) is added. After incubation at 4° C. for 60 min (shaking at intervals of 15 min), the mixture is centrifuged (Sorvall SM24 tubes, 3000 rpm, 10 min, 4° C.). The supernatant is adjusted to pH 5.2 by adding glacial acetic acid and is incubated at 4° C. for 30 min. The precipitates are collected by centrifugation (Sorvall SS34, 12 000 rpm, 10 min, 4° C.) and suspended in 2.5 ml of 20 mM Tris/HCl, pH 7.0, 1 mM EDTA, 65 mM NaCl, 13% sucrose, 1 mM DTT, 10 μg/ml leupeptin/pepstatin/antipain. The suspension is dialyzed against 25 mM Tris/HCl, pH 7.4, 50% glycerol, 1 mM DTT, 10 μg/ml leupeptin, pepstatin, antipain at 4° C. overnight and then loaded onto a hydroxyapatite column (0.1 g per 1 ml of suspension, equilibrated with 10 mM potassium phosphate, pH 7.0, 30% glycerol, 1 mM DTT). The column is washed with four volumes of equilibration buffer at a flow rate of 20 to 30 ml/h. The HSL is eluted with one volume of equilibration buffer containing 0.5 M potassium phosphate and then dialyzed (see above) and concentrated 5- to 10-fold by ultrafiltration (Amicon Diaflo PM 10 Filter) at 4° C. The partially purified HSL can be stored at −70° C. for 4 to 6 weeks.
To prepare the substrate, 25-50 μCi of [3H]trioleoylglycerol (in toluene), 6.8 μmol of unlabeled trioleoylglycerol and 0.6 mg of phospholipids (phosphatidylcholine/phosphatidylinositol 3:1 w/v) are mixed, dried with N2 and then taken up in 2 ml of 0.1 M KPi (pH 7.0) by ultrasound treatment (Branson 250, microtip, setting 1-2, 2×1 min with an interval of 1 min). After addition of 1 ml of KPi and renewed ultrasound treatment (4×30 sec on ice with intervals of 30 sec), 1 ml of 20% BSA (in KPi) is added (final concentration of trioleoylglycerol 1.7 mM). For the reaction, 100 μl of substrate solution are pipetted into 100 μl of HSL solution (HSL prepared as above, diluted in 20 mM KPi, pH 7.0, 1 mM EDTA, 1 mM DTT, 0.02% BSA, 20 μg/ml pepstatin, 10 μg/ml leupeptin) and incubated at 37° C. for 30 min. Addition of 3.25 ml of methanol/chloroform/heptane (10:9:7) and of 1.05 ml of 0.1 M K2CO3, 0.1 M boric acid (pH 10.5) is followed by thorough mixing and finally centrifugation (800×g, 20 min). After phase separation, one equivalent of the upper phase (1 ml) is removed and the radioactivity is determined by liquid scintillation measurement.
1.3 Evaluation of the HSL-Inhibitory Effect:
Substances are normally tested in four independent mixtures. The inhibition of the HSL enzymatic activity by a test substance is determined by comparing with an uninhibited control reaction. The IC50 is calculated from an inhibition plot with at least 10 concentrations of the test substance. The GRAPHIT, Elsevier-BIOSOFT software package is used to analyze the data.

Chain of hormone sensitive lipase, HSL (P15304 301-1068, change not shown): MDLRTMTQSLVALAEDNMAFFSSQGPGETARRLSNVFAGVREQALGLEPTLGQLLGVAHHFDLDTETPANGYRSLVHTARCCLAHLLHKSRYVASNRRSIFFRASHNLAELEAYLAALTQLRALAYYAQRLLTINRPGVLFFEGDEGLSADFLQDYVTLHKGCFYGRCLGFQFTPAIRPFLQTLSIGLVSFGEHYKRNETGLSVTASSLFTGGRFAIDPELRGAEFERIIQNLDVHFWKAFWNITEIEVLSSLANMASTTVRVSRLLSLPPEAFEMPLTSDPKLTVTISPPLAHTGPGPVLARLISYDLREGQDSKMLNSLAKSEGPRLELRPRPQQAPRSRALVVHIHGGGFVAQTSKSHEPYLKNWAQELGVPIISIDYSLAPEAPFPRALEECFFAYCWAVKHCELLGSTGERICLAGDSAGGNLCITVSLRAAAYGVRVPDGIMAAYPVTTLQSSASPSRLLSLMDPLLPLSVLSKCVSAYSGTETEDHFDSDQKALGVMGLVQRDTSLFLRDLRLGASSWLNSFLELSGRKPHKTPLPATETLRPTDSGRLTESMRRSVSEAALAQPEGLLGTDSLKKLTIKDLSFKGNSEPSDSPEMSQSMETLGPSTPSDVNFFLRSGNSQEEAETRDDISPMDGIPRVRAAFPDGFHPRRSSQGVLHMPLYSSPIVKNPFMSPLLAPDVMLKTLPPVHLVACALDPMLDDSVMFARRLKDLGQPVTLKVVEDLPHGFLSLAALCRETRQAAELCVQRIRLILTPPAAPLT

Structure (SMILES) | IC50 [µM]
CC1CCN(C(=O)Oc2nsc3ncccc23)CC1 [Example 4, Isothiazolo[5,4-b]pyridin-3-yl 4-methylpiperidine-1-carboxylate] | 0.1
CC1CCN(C(=O)Oc2noc3cc(Cl)ccc23)CC1 [Example 1, 6-Chlorobenzo[d]isoxazol-3-yl 4-methylpiperidine-1-carboxylate] | 0.12
CC1CCN(C(=O)Oc2noc3nc(Cl)ccc23)CC1 [Example 10, 6-Chloroisoxazolo[5,4-b]pyridin-3-yl 4-methylpiperidine-1-carboxylate] | 0.67
O=C(Oc1noc2cc(Cl)ccc12)N1CCC(C(F)(F)F)CC1 [Example 3, 6-Chlorobenzo[d]isoxazol-3-yl 4-trifluoromethylpiperidine-1-carboxylate] | 0.1
Cc1ccc2c(OC(=O)N3CCC(C)CC3)noc2n1 [Example 11, 6-Methylisoxazolo[5,4-b]pyridin-3-yl 4-methylpiperidine-1-carboxylate] | 0.26
CC1CCN(C(=O)Oc2nsc3ccccc23)CC1 [Example 5, Benzo[d]isothiazol-3-yl 4-methylpiperidine-1-carboxylate] | 0.1
CC1CCN(C(=O)Oc2noc3ncccc23)CC1 [Example 2, Isoxazolo[5,4-b]pyridin-3-yl 4-methylpiperidine-1-carboxylate] | 0.12

What follows are compounds tested against endothelial lipase (EL) (Homo sapiens (Human), UniProt Q9Y5X9) (assay: EL inhibition assay). Conditions: EL from conditioned medium of recombinant cell lines (CHO, HEK293); Bodipy phospholipid substrate.
Chain of endothelial lipase (EL) (Q9Y5X9 21-500, species assumed): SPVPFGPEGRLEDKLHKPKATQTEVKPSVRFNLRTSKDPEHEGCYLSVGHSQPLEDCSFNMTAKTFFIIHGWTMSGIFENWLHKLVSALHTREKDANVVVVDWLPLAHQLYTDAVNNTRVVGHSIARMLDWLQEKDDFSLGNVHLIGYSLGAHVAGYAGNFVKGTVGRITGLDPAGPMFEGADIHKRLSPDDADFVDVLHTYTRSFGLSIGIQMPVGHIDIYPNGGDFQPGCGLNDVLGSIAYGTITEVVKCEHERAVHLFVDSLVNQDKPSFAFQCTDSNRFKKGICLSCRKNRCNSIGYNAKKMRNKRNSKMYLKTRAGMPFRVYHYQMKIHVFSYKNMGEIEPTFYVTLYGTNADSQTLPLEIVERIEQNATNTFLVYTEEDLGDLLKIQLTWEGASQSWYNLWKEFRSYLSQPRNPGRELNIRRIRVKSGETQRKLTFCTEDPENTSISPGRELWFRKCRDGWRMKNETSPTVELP
Format: biochemical
Description: EL is released as secretory protein in high concentration into cell culture medium (conditioned medium) by recombinant cell lines (CHO, HEK293). This is employed as enzyme solution after concentration.
The phospholipase-specific substrate 1,2-bis(4,4-difluoro-5,7-dimethyl-4-bora-3a,4a-diaza-s-indacene-3-undecanoyl)-sn-glycero-3-phosphocholine, (manufacturer Molecular Probes) is used to characterize the enzymatic activity of endothelial lipase and the effect of inhibitors. Hydrolysis of the A1 ester linkage of this phospholipid by the enzyme liberates the fluorescent dye Bodipy which can be detected after separation by thin-layer chromatography on an HPTLC plate (silica gel 60, Merck) or directly in the reaction vessel by measuring the fluorescence.
The substrate solution is prepared by taking up 100 μg of 1,2-bis(4,4-difluoro-5,7-dimethyl-4-bora-3a,4a-diaza-s-indacene-3-undecanoyl)-sn-glycero-3-phospho-choline (manufacturer Molecular Probes), 2.4 mg of tripalmitin (Sigma) and 7.9 mg of DOP—choline (1,2-dioleoyi-sn-glycero-3-phosphocholine) in 393 μl of chloroform and then transferring 157 μl into a fresh reaction vessel. After evaporation of the solvent, the lipid mixture is dissolved in 4 ml of 200 mM TRIS-HCl, 150 mM sodium chloride, pH=7.4, by sonication twice. […] After evaporation of the eluent, the plate is read in a fluorescence scanner. […]

Structure (SMILES) | IC50 [µM]
Cc1ccccc1CNC(=O)Nc1nsc2ccc([N+](=O)[O-])cc12 [Example 7, 1-(2-Methylbenzyl)-3-(5-nitrobenzo[d]isothiazol-3-yl)urea] | 14.6
CCCCCCNC(=O)Nc1noc2ccccc12 [Example 8, 1-Benzo[d]isoxazol-3-yl-3-hexylurea] | 14.6
